Values joined by “and” are separate entries in the source; they are usually repeats but may differ in a detail not shown here. Identical values can stand only once. Like-named read-outs stand apart in the source and are kept apart here.
Assays:
BuChE = details: cited from earlier work
[1] = biological target: T1, BuChE purified from human plasma (Homo sapiens, UniProt P06276); assay: Ellman assay, BuChE inhibition; assay type: biochemical; details: for Selectivity: IC50 AChE/IC50 BuChE, 100 µM used for AChE where % inhibition at 100 µM was <50%; for IC50: n = 3
T1 construct: BuChE purified from human plasma; from tissue; host or cells: human plasma
Procedure: (§1) Inhibitory activities of the isosorbide-2-carbamates bearing a lipoate ester (7a–d), a ferulate ester (8a–d) ester or 5-unsubstituted compounds (6a–d) was measured using the standard Ellman spectrophotometric method using AChE from electric eel or BuChE purified from human plasma with acetylthiocholine or butyrylthiocholine as appropriate (Table 1). […] These values are in the potency range of clinically used cholinesterase inhibitors. […] In most cases, it was not possible to achieve a maximal inhibition of AChE because the solubility threshold was lower than the concentration required for maximal inhibition. In previous studies, we noticed that phenyl carbamates of isosorbide are relatively weak inhibitors of BuChE compared with the benzyl and alkyl carbamates, but that AChE is relatively tolerant of isosorbide phenyl carbamates. We published a paper showing that isosorbide-2,5-diaryl esters are moderately potent substrate-inhibitors of AChE [25]. […] The effect of (appropriate) 5-ester substitution in the series of isosorbide compounds already published is to increase potency by promoting affinity in the pre-carbamylation state, reducing the pseudo Michaelis constant for the carbamate substrate (referred to as Kc in carbamylation literature). When the intrinsic affinity of the substrate carbamate is higher, there is a relatively greater proportion of the unimolecular E. carbamate complex. In the present case, the anti-oxidant ester functionality directly contributes to potency by increasing substrate affinity. […] Indeed, ester hydrolysis at the isosorbide C-5, which is slow, would produce the ferulic acid or lipoic acid byproduct.
(§2) Cholinesterase activity was measured using the Ellman spectrophotometric method. HuBuChE activity was measured in replicate samples using a 96-well plate reader. The total volume of test solution in each well was 250 μL. This consisted of 25 μL of plasma solution, 150 μL of phosphate buffer pH 8.0, 25 μL of DTNB solution (0.5 mM), and 25 μL of acetonitrile:distilled water (1:1). The 96-well plate was incubated for 30 min before 25 μL of butyrylthiocholine iodide (BTCI) solution (0.5 mM) was added, and the reaction was measured at 405 nm over 5 min using an Anthos bt2 plate reader. For the determination of AChE activity, 25 μL of electric eel AChE solution and 25 μL of acetylthiocholine iodide (ATCI) solution were used instead of the plasma solution and BTCI solution. For determination of enzyme inhibition, 25 μL of an inhibitor solution was added to the test solution instead of the acetonitrile:water (1:1) solution. Inhibitors were added 30 min before determination of remaining enzyme activity. IC50 values were calculated using GraphPad Prism 4.02 software (GraphPad Software Inc., La Jolla, CA, USA).

AChE from electric eel = biological target: T2, AChE from electric eel (Electrophorus electricus, UniProt O42275); assay: Ellman assay, AChE inhibition; assay type: biochemical; details: for IC50: inhibitor added 30 min before; for inhibition at 100 µM: read-out: AChE %I at 100 μM
T2 construct: AChE from electric eel; from tissue
Procedure: as §1, §2

human BuChE = human BuChE (Homo sapiens, UniProt P06276); assay: Inhibitor kinetics, time dependence of BuChE carbamylation; assay type: biochemical; details: r^2 > 0.99
Procedure: Solutions of human BuChE were treated with 7a in the range of 1–50 µM. At successive time intervals, aliquots were removed and the carbamylation reaction stopped by dilution. Residual enzyme activity at each time point and each inhibitor concentration level was estimated by adding the sample to a solution containing butyrylthiocholine substrate.
In order to monitor enzyme carbamylation over time, a 96-well plate was used, with all assay mixtures being made up to a final concentration of 250 μL for monitoring of absorbance at 412 nm. At time 0, 150 μL of inhibitor, at various concentrations, was added to an equal volume of enzyme. Thereafter, at successive time points, 50 μL aliquots were removed from these wells and added to wells containing 200 μL DTNB and BTCI in phosphate buffer pH 8.0. Hydrolysis of substrate was monitored by examining the changes in absorbance in each well at 412 nm over the following 30 s. Negative controls were run alongside the test solutions to take account of non-enzymatic hydrolysis, while positive controls gauged the rate of the uninhibited reaction. At least two replicate wells were run for each concentration of inhibitor. Plots of percentage inhibition over time were prepared using GraphPad Prism 4.03. A first order inhibition constant, kobs was obtained for each concentration of inhibitor by non-linear regression using an exponential decay function.

[2] = system: HT-22 murine hippocampal cell line; assay: cells; assay type: cell-based; details: glutamate 5 mM
Procedure: (§3) The neuroprotective properties of the compounds were assessed using the HT-22 murine hippocampal cell line. This is an immortalized cell line which has become widely used in recent years to study oxidative stress induced neuronal cell death. The cell line lacks ionotropic glutamate receptors but is sensitive to glutamate cytotoxicity via non-receptor mediated pathway(s) that are to a significant extent propagated by reactive oxygen species. The cell line appeared to be a good cellular model for measuring an anti-oxidant mediated neuroprotective in vitro effect of the compounds [26, 27, 28].
(§4) Test compounds in DMSO solution (0.1%) were added to HT-22 cell culture for (24 h), using four repeats in three independent experiments. […] Lipoic acid and ferulic acid were also non-toxic in the same concentration range. Next, the neuronal cell culture was treated with glutamate (5 mM) which caused about 90% cell death as reflected in the MTT assay. Quercetin served as positive control and caused rescue of cell death to around 80% cell viability at 25 µM. Cells were co-treated with test compounds 7a–d and 8a–d at 1, 5, 10 and 25 µM in four repeats and three independent experiments. Lipoic and ferulic acid were tested in parallel experiments in the same concentration range. Lipoic acid was active in the range 10–25 µM but ferulic acid was not active (data not shown). […] The reasons for this unexpected variation in efficacy is not clear but may be due to (intra)cellular access.
This test was performed as reported before. Briefly, HT-22 cells were seeded in 96-well plates at a density of 5 × 10^3 per well and cultured for 24 h. Subsequently, cells were incubated for another 24 h either with medium or test compounds with potential cytoprotective activity either in the absence (to test for toxic effects) or the presence (to test for the protective potential against glutamate induced oxidative stress) of 5 mM glutamate. MTT solution (4 mg/mL in PBS) was diluted 1:10 with medium and the mixture was added to the wells after removal of the previous medium. The plates were then incubated for another 3 h. Then, the supernatant was removed and 100 µL of lysis buffer (10% SDS, pH 4.1) were added to the wells. Absorbance at 560 nm was determined on the next day using a multiwell plate photometer (Spectra Fluor Plus, Tecan, Crailsheim, Germany). The results of these cell viability assays were expressed as percentages relative to untreated control cells. All compounds were dissolved in DMSO and diluted with fresh medium, with the DMSO concentration always below 0.1% (v/v).
Data of all MTT tests were expressed as means ± SD of at least three independent experiments (in quadruplicates). Data were subjected to one-way ANOVA followed by Dunnett’s multiple comparison post-test using GraphPad Prism 5 Software. (Levels of significance ** p < 0.01; *** p < 0.001).

[3] = Oxygen radical absorbance capacity (ORAC) assay; assay type: physicochemical; details: for ORAC antioxidant capacity: TE = 1 equals trolox
Procedure: The antioxidant capacity of 7d and 8a was assessed directly using the oxygen radical absorbance capacity (ORAC) assay, in which the physicochemical ability of the test compounds to scavenge radicals and quench fluorescein […] is quantified and related to so-called trolox equivalents (TE = 1 represents the antioxidant equivalence to trolox, a water-soluble Vitamin E derivative). Compound 7d was 0.163 ± 0.146, 8a, 0.635 ± 0.020, thus showing a very weak ORAC for the lipoate and a weak, but significant, effect for the ferulic acid derivative. The lack of activity of the lipoate in the non-cellular ORAC assay is not surprising as its anti-oxidant effects are mainly related to cellular or mitochondria related processes.
Compounds were assessed for antioxidant capacity using the standard ORAC assay performed as described previously.

[4] = system: HT-22 murine hippocampal cell line; assay type: cell-based; details: 24 h, no glutamate; for toxicity / reduction in cell viability, compound alone: 1–25 µM
Procedure: as §3, §4
This test was performed as reported before. Briefly, HT-22 cells were seeded in 96-well plates at a density of 5 × 10^3 per well and cultured for 24 h. […] Absorbance at 560 nm was determined on the next day using a multiwell plate photometer (Spectra Fluor Plus, Tecan, Crailsheim, Germany). The results of these cell viability assays were expressed as percentages relative to untreated control cells. […]

[5] = inhibitor added 30 min before, read-out: BChE IC50
[6] = read-out: BChE pIC50 ± SEM (converted)

T1 sequence (P06276 29-602): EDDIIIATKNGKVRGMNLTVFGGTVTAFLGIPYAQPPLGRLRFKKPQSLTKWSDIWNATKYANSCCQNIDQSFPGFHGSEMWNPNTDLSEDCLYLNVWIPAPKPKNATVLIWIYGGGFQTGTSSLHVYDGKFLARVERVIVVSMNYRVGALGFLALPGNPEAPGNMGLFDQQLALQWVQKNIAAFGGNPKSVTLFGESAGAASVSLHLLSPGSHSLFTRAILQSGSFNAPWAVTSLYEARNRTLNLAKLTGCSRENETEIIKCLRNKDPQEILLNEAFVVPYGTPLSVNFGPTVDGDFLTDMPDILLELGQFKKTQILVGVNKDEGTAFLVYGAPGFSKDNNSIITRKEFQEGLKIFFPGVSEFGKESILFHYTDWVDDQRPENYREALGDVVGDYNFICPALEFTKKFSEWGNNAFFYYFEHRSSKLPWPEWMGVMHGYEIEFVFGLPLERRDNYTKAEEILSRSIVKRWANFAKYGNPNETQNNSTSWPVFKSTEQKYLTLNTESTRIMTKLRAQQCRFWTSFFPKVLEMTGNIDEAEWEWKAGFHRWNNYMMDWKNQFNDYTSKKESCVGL
T2 sequence (O42275 24-633): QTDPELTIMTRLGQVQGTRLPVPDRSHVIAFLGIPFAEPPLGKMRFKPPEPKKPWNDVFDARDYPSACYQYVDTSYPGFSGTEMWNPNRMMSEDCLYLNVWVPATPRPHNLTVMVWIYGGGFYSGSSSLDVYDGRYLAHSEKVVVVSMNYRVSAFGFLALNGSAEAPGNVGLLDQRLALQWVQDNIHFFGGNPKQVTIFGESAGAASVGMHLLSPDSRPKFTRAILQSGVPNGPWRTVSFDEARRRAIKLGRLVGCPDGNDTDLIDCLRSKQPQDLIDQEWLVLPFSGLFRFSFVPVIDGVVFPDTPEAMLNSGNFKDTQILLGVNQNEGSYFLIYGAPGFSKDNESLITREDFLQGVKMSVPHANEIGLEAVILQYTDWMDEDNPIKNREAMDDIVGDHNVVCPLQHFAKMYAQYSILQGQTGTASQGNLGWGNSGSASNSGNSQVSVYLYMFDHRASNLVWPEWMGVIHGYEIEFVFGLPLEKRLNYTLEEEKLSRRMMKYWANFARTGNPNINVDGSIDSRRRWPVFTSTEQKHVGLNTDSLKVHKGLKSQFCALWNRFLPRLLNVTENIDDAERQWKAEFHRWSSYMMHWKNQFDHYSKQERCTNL
human BuChE, sequence (P06276 29-602): as the sequence (P06276 29-602) above

Structure (SMILES)	IC50 [1, 5] [µM]	inhibition at 100 µM (AChE from electric eel; 100 μM, n = 3) [%]	IC50 [1, 6] [µM]	other results
O=C(NCc1ccccc1)O[C@H]1CO[C@H]2[C@@H]1OC[C@H]2OC(=O)c1ccccc1 [Compound 1]	–	–	–	IC50 (BuChE; read-out: IC50 BuChE): 0.0043 µM
O=C(NCc1ccccc1)O[C@H]1CO[C@H]2[C@@H]1OC[C@H]2O [Compound 6a, Isosorbide-2-benzylcarbamate]	25.8	–	–	Selectivity [1]: 1.45; IC50 (AChE from electric eel; n = 3): 37.5 ± 7.4 µM
O=C(Nc1ccccc1)O[C@H]1CO[C@H]2[C@@H]1OC[C@H]2O [Compound 6b, Isosorbide-2-phenylcarbamate]	> 100	25.3	–	–
CCCCNC(=O)O[C@H]1CO[C@H]2[C@@H]1OC[C@H]2O [Compound 6c, Isosorbide-2-butylcarbamate]	28	–	28.2	inhibition at 100 µM (AChE from electric eel): 30%
CCNC(=O)O[C@H]1CO[C@H]2[C@@H]1OC[C@H]2O [Compound 6d, Isosorbide-2-ethylcarbamate]	46.9	22	46.8	–
O=C(CCCCC1CCSS1)O[C@@H]1CO[C@H]2[C@@H]1OC[C@@H]2OC(=O)NCc1ccccc1 (some centres unmarked) [Compound 7a, Isosorbide-2-benzylcarbamate-5-lipoic acid ester]	0.15	30.8	–	Selectivity [1]: >667; pseudo first order rate constant of BuChE inhibition (human BuChE; inhibitor 10 µM): 0.068 min⁻¹; pseudo first order rate constant of BuChE inhibition (human BuChE; inhibitor 50 µM): 0.198 min⁻¹; concentration range with neuroprotective effect ([2]; tested at 1, 5, 10 and 25 µM): 5 to 25 µM and > 5 µM
O=C(CCCCC1CCSS1)O[C@@H]1CO[C@H]2[C@@H]1OC[C@@H]2OC(=O)Nc1ccccc1 (some centres unmarked) [Compound 7b, Isosorbide-2-phenylcarbamate-5-lipoic acid ester]	13.3	18.8	13.2	Selectivity [1]: >7.5; neuroprotective effect ([2]; 1–25 µM): neuroprotective effect could not be observed
CCCCNC(=O)O[C@H]1CO[C@H]2[C@@H]1OC[C@H]2OC(=O)CCCCC1CCSS1 (some centres unmarked) [Compound 7c, Isosorbide-2-butylcarbamate-5-lipoic acid ester]	0.17	68.7	0.209	neuroprotective effect ([2]; 1–25 µM): showed some effects
CCNC(=O)O[C@H]1CO[C@H]2[C@@H]1OC[C@H]2OC(=O)CCCCC1CCSS1 (some centres unmarked) [Compound 7d, Isosorbide-2-ethylcarbamate-5-lipoic acid ester]	5.71	84.1	5.75	neuroprotective effect ([2]; 1–25 µM): showed some effects; ORAC antioxidant effect [3]: not active; ORAC antioxidant capacity [3]: 0.163 ± 0.146 Trolox Equivalent
COc1cc(/C=C/C(=O)O[C@@H]2CO[C@H]3[C@@H]2OC[C@@H]3OC(=O)NCc2ccccc2)ccc1O [Compound 8a, Isosorbide-2-benzylcarbanate-5-ferulate]	1.82	25.2	1.62	Selectivity [1]: >55; ORAC antioxidant capacity [3]: 0.635 ± 0.020 Trolox Equivalent
COc1cc(/C=C/C(=O)O[C@@H]2CO[C@H]3[C@@H]2OC[C@@H]3OC(=O)Nc2ccccc2)ccc1O [Compound 8b, Isosorbide-2-phenylcarbanate-5-ferulate]	29.2	–	26.3	Selectivity [1]: 0.92; IC50 (AChE from electric eel; n = 3): 27.1 ± 11.3 µM
CCCCNC(=O)O[C@H]1CO[C@H]2[C@@H]1OC[C@H]2OC(=O)/C=C/c1ccc(O)c(OC)c1 [Compound 8c, Isosorbide-2-butylcarbanate-5-ferulate]	0.43	–	0.389	–
CCNC(=O)O[C@H]1CO[C@H]2[C@@H]1OC[C@H]2OC(=O)/C=C/c1ccc(O)c(OC)c1 [Compound 8d, Isosorbide-2-ethylcarbanate-5-ferulate]	95	–	95.5	reduction in cell viability, compound alone ([4]; 25 µM): significant
COc1cc(/C=C/C(=O)O)ccc1O [Ferulic acid, ferulic acid, reference compound]	–	–	–	toxicity / reduction in cell viability, compound alone [4]: non-toxic; neuroprotective effect ([2]; 1–25 µM): not active
O=C(NCc1ccccc1)OC1COC2C(OC(=O)c3ccccc3O)COC12 (centres unmarked) [Isosorbide-2-benzyl carbamate-5-salicylate]	–	–	–	IC50 (BuChE; read-out: IC50 for BuChE): < 0.00015 µM
O=C(O)CCCCC1CCSS1 (centres unmarked) [Lipoic acid, lipoic acid, reference compound]	–	–	–	toxicity / reduction in cell viability, compound alone [4]: non-toxic; neuroprotective effect ([2]; compound 5 µM): not effective
O=c1c(O)c(-c2ccc(O)c(O)c2)oc2cc(O)cc(O)c12 [Quercetin, quercetin, reference compound]	–	–	–	viability at 25 µM ([2]; Mus musculus, HT-22, compound 25 µM, read-out: cell viability after rescue from glutamate): ~80%
